Usually TGI stands for the concentration at which net growth stops. A high value points to less potent growth arrest. A word on the GI50: it is the concentration at which growth is held to half of that of the control.

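Results reflect a 48-hour exposure of cells in 96-well plates to compound at five concentrations. GI50 is the concentration that inhibits growth by half. TGI: concentration producing complete growth inhibition.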

This is an account of results in PubChem BioAssay (NCI).

Test systems include SK-MEL-2 melanoma; K-562 leukemia; NCI/ADR-RES ovarian; MOLT-4 leukemia; SN12C renal; CCRF-CEM leukemia; HCC-2998 colon; RPMI-8226 leukemia; LOX IMVI melanoma; HCT-15 colon.
Common to all, as to test: DTP human tumour cell line panel, 48 h

Regarding `C[C@]12CC[C@@H]3c4cc(OCC(F)(F)F)c(O)cc4/C(=N/O)C[C@H]3[C@@H]1CC[C@@H]2O`, the total growth inhibition concentration (TGI) in the experiment on SK-MEL-2 melanoma was 0.852 µM; in the experiment on NCI/ADR-RES ovarian, 2.49 µM; with SN12C renal, 48.3 µM; with CCRF-CEM leukemia it was less than 0.0292 µM; in the experiment with HCC-2998 colon it was 11.4 µM; with RPMI-8226 leukemia it was 2.33 µM. For the same compound, the TGI in the experiment on LOX IMVI melanoma is 14.8 µM; in the experiment on HCT-15 colon it was more than 42.5 µM. Moreover, the GI50 was 0.0213 µM with K-562 leukemia; 0.0392 µM in the experiment on NCI/ADR-RES ovarian; 0.0575 µM with MOLT-4 leukemia; 0.0584 µM with RPMI-8226 leukemia; 0.048 µM in the experiment on LOX IMVI melanoma; 0.0487 µM in the experiment on HCT-15 colon.
Regarding `Cc1ccc2[nH]c(O)c(N=Nc3ccc(S(N)(=O)=O)cc3)c2c1`, the GI50 in the experiment on SK-MEL-2 melanoma was more than 25 µM; in the experiment with K-562 leukemia, 13.8 µM; with NCI/ADR-RES ovarian, 18.2 µM; in the experiment with MOLT-4 leukemia, more than 21.5 µM; in the experiment with SN12C renal, 15.4 µM; in the experiment on CCRF-CEM leukemia, 15.6 µM. Also, the GI50 is 14.8 µM in the experiment with HCC-2998 colon, more than 25 µM in the experiment on RPMI-8226 leukemia, 13.1 µM with LOX IMVI melanoma and 11.1 µM in the experiment with HCT-15 colon. The concentration for total growth inhibition (TGI) in the experiment on SK-MEL-2 melanoma, in the experiment with K-562 leukemia, in the experiment with NCI/ADR-RES ovarian, in the experiment on MOLT-4 leukemia, in the experiment with SN12C renal and in the experiment with CCRF-CEM leukemia was more than 25 µM each time. Besides, the TGI with HCC-2998 colon, in the experiment on RPMI-8226 leukemia, with LOX IMVI melanoma and in the experiment with HCT-15 colon was more than 25 µM in each case.
With `COc1cc2[nH]c(C(=O)c3cc(OC)c(OC)c(OC)c3)c(N)c2cc1C#CC1CC1`, the GI50 in the experiment on SK-MEL-2 melanoma was 5.14 µM; with K-562 leukemia, 1.94 µM; with NCI/ADR-RES ovarian, 2.3 µM; with MOLT-4 leukemia, 4.32 µM; with SN12C renal, 7.69 µM; in the experiment on CCRF-CEM leukemia, 3.38 µM. The GI50 with HCC-2998 colon was 20.1 µM; with RPMI-8226 leukemia it was 3.28 µM; with LOX IMVI melanoma, 4.33 µM; in the experiment on HCT-15 colon, 2.3 µM. Moreover, the concentration for total growth inhibition (TGI) in the experiment with SK-MEL-2 melanoma was more than 100 µM; with K-562 leukemia, more than 100 µM; in the experiment with NCI/ADR-RES ovarian, 14.4 µM; in the experiment on MOLT-4 leukemia, more than 100 µM; in the experiment with SN12C renal, more than 100 µM; with CCRF-CEM leukemia, more than 100 µM. Moreover, the TGI was more than 100 µM in the experiment with HCC-2998 colon, 42.5 µM with RPMI-8226 leukemia, more than 100 µM with LOX IMVI melanoma and more than 100 µM with HCT-15 colon.
Consider `CC(C)(C[C@H]1CN(S(=O)(=O)c2cccc(C(F)(F)F)c2)c2cc(-c3cc(F)cc(OC(F)F)c3)ccc2O1)C(=O)O`, for which the GI50 with SK-MEL-2 melanoma is 4.8 µM; in the experiment on K-562 leukemia, 4.83 µM; in the experiment with NCI/ADR-RES ovarian it was 5.07 µM; in the experiment on MOLT-4 leukemia, 5.88 µM; with SN12C renal, 11.3 µM; with CCRF-CEM leukemia, 4.72 µM. The GI50 is 10.1 µM with HCC-2998 colon, 3.45 µM in the experiment with RPMI-8226 leukemia, 6.54 µM in the experiment on LOX IMVI melanoma and 4.19 µM with HCT-15 colon. The TGI amounted to 18.2 µM in the experiment with SK-MEL-2 melanoma; 30.3 µM in the experiment with K-562 leukemia; 30.9 µM in the experiment on NCI/ADR-RES ovarian; 29.7 µM in the experiment on MOLT-4 leukemia; 28 µM with SN12C renal; 24.7 µM in the experiment on CCRF-CEM leukemia. In addition, the TGI in the experiment on HCC-2998 colon was determined as 24.4 µM; with RPMI-8226 leukemia, 17.6 µM; in the experiment on LOX IMVI melanoma, 22.5 µM; with HCT-15 colon it was 16.9 µM.
Turning to `Nc1ccn(C2CCC(CO)O2)c(=O)n1` (stereo not drawn), the GI50 with SK-MEL-2 melanoma is more than 1000 µM; in the experiment with K-562 leukemia it was more than 1000 µM; in the experiment on MOLT-4 leukemia, 87.5 µM; with SN12C renal it was more than 1000 µM; in the experiment with CCRF-CEM leukemia, 108 µM; with HCC-2998 colon, more than 1000 µM. Besides, the GI50 in the experiment with RPMI-8226 leukemia, with LOX IMVI melanoma and with HCT-15 colon was more than 1000 µM each time. For the same compound, the TGI with SK-MEL-2 melanoma, in the experiment on K-562 leukemia, in the experiment with NCI/ADR-RES ovarian, in the experiment with MOLT-4 leukemia, in the experiment with SN12C renal and in the experiment on CCRF-CEM leukemia was more than 1000 µM each time. Besides, the TGI with HCC-2998 colon, with RPMI-8226 leukemia, in the experiment on LOX IMVI melanoma and in the experiment on HCT-15 colon was more than 1000 µM throughout.
As to `CC1(C)[C@@H](OC(N)=O)[C@H]2O[C@H]2[C@]2(C=O)[C@H]3CC[C@]4(C)[C@@H](c5ccc(=O)oc5)[C@@H](Cl)C[C@]4(O)C3=CC[C@@H]12`, the GI50 is 0.02 µM with SK-MEL-2 melanoma; 0.00698 µM in the experiment on K-562 leukemia; 0.00589 µM in the experiment with NCI/ADR-RES ovarian; 0.00365 µM in the experiment with MOLT-4 leukemia; 0.0056 µM in the experiment on SN12C renal; 0.00571 µM in the experiment on CCRF-CEM leukemia. The GI50 in the experiment with HCC-2998 colon is 0.00815 µM; with RPMI-8226 leukemia it was 0.00795 µM; in the experiment on LOX IMVI melanoma, 0.00451 µM; in the experiment on HCT-15 colon, 0.0056 µM. For the same compound, the TGI in the experiment with SK-MEL-2 melanoma worked out at 0.0692 µM; in the experiment with K-562 leukemia it was 0.0253 µM; with NCI/ADR-RES ovarian, 0.0142 µM; in the experiment on MOLT-4 leukemia it was 0.0112 µM; with SN12C renal it was 0.0173 µM; in the experiment with CCRF-CEM leukemia it was 0.0147 µM. Also, the TGI in the experiment with HCC-2998 colon turned out to be 0.0342 µM; in the experiment with RPMI-8226 leukemia, 0.034 µM; in the experiment on LOX IMVI melanoma, 0.00886 µM; in the experiment with HCT-15 colon, 0.0128 µM.
Turning to `C=C1CCC(CC[C@@H]2CC[C@]3(OC2)O[C@@]2(O)CC[C@]3(C)OC2(C)C)C(C)(C)[C@H]1C/C=C1/C(=O)OC[C@@H]1O` (stereo partly drawn), the TGI with SK-MEL-2 melanoma worked out at 1.36 µM; in the experiment with K-562 leukemia, 2.38 µM; with NCI/ADR-RES ovarian it was 6.92 µM; in the experiment with MOLT-4 leukemia it was 5.45 µM; in the experiment on SN12C renal, 8.03 µM; in the experiment on CCRF-CEM leukemia, 2.32 µM. Moreover, the TGI in the experiment with HCC-2998 colon is 10.2 µM; in the experiment with RPMI-8226 leukemia, more than 25.1 µM; in the experiment on LOX IMVI melanoma, 1.88 µM; with HCT-15 colon, 3.25 µM.
Consider `Cc1[nH]c2ccccc2c(=O)c1CC=C(Cl)Cl`, for which the GI50 in the experiment on SK-MEL-2 melanoma is 28.4 µM; with K-562 leukemia, 99.2 µM; in the experiment with NCI/ADR-RES ovarian, 44.2 µM; in the experiment with MOLT-4 leukemia, 82.3 µM; in the experiment on SN12C renal it was 50.3 µM; in the experiment on CCRF-CEM leukemia, more than 100 µM. For the same compound, the GI50 in the experiment on HCC-2998 colon is more than 100 µM; in the experiment with RPMI-8226 leukemia, 84.4 µM; in the experiment with LOX IMVI melanoma, more than 100 µM; with HCT-15 colon it was more than 100 µM. Besides, the TGI in the experiment with SK-MEL-2 melanoma, with K-562 leukemia, in the experiment with NCI/ADR-RES ovarian, in the experiment with MOLT-4 leukemia, in the experiment with SN12C renal and in the experiment with CCRF-CEM leukemia was more than 100 µM in each case. Besides, the TGI in the experiment with HCC-2998 colon, in the experiment on RPMI-8226 leukemia, in the experiment on LOX IMVI melanoma and in the experiment on HCT-15 colon was more than 100 µM throughout.
